{"source": "paper PMC6302903", "about": "“Protein and Chemical Determinants of BL-1249 Action and Selectivity for K2P Channels” (ACS Chemical Neuroscience, 2018)", "key": {"K2P4.1(TRAAK)": {"target": "T1, K2P4.1(TRAAK) (Mus musculus, UniProt O88454)", "T1 construct": "expressed in transfected cells; host or cells: Xenopus laevis oocytes injected with mRNA made from pGEMHE/pMO", "T1 sequence (O88454 1-398)": "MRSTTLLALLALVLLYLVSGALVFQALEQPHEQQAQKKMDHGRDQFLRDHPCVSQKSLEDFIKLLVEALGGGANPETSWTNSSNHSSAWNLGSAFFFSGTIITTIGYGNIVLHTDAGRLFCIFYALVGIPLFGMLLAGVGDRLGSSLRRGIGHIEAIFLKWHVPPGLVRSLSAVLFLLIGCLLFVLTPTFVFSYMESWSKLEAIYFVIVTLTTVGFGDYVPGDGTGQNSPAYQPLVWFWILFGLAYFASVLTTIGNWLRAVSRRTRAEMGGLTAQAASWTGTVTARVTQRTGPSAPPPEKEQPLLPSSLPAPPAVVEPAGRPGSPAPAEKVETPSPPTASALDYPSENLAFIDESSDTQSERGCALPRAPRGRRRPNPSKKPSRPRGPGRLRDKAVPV", "test": "TEVC of K2P4.1(TRAAK) in Xenopus oocytes", "type": "cell-based", "from_the_text": "Constructs for murine K2P channels, including K2P2.1(TREK-1) (Gene ID 16526), K2P10.1(TREK-2) (Gene ID 72258), K2P4.1(TRAAK) (Gene ID 16528), K2P5.1(TASK-2) (Gene ID 16529), K2P3.1(TASK-1) (Gene ID 16527), K2P9.1(TASK-3) (Gene ID 223604), and K2P18.1(TRESK) (Gene ID 332396) in pGEMHE/pMO, were used for Xenopus oocyte experiments as previously described.[10],[26] Murine K2P2.1(TREK-1) (Gene ID 16526) was expressed in HEK-293 cells using a pIRES-EGFP construct as previously described.[26] Murine K2P13.1(THIK-1) (Gene ID 217826) and K2P1.1(TWIK-1) (Gene ID 16525) were cloned into pGEMHE/pMO for use in Xenopus oocytes. Chimeras were designed using EMBOSS Needle pairwise sequence alignment tool[58] to match homologous helices in K2P2.1(TREK-1) and K2P4.1(TRAAK) and were assembled using the Gibson assembly method.[59] Chimera boundaries are Thr152 (TREK-1/AAK M2-C), Trp199 (TREK-1/AAK M3-C), Y272 (TREK-1/AAK M4-C), Thr114 (TRAAK/EK-1 M2-C), Trp161 (TRAAK/EK-1 M3-C), and Tyr234 K2P4.1(TRAAK). All sequences were verified using DNA sequencing.\nXenopus laevis oocytes were harvested in accordance with UCSF IACUC protocol AN129690 and digested in calcium-free ND-96 (96 mM NaCl, 2 mM KCl, 3.8 mM MgCl2) immediately following harvest, as previously described.[6],[10] Digested oocytes were maintained in standard ND96 (96 mM NaCl, 2 mM KCl, 1.8 mM CaCl2, 2 mM MgCl2) with antibiotics (100 units mL^–1 penicillin, 100 μg mL^–1 streptomycin, 50 μg mL^–1 gentimycin). Defolliculated stage V–VI oocytes were injected with 0.2–6.0 ng of mRNA in 50 nL, and currents were recorded 24–48 h after injection. mRNA was synthesized from plasmid DNA using mMessage mMachine Kit (T7 promoter, Ambion, Life Technologies) and purified using RNEasy Kit (Qiagen). Injected oocytes were impaled with two standard microelectrodes (0.2–1.0 MΩ) filled with 3 M KCl and subjected to constant perfusion of standard ND96 during recording. Currents were amplified using the GeneClamp 500B (MDS Analytical Technologies) amplifier controlled by the pClamp software (Molecular Devices). Data were digitized at 1 kHz using Digidata 1332A (MDS Analytical Technologies). For all experiments with small molecules, basal currents were evoked using 1 s long ramps from −150 to +50 mV under constant perfusion of ND96. Once stabilized basal currents were recorded, compounds were perfused at various concentrations in standard ND96 and currents were allowed to increase to stabilization before recording final current. Fold activation upon compound application is expressed as I/I0 (0 mV), derived from the current at 0 mV in the presence of compound divided by the basal current at 0 mV in standard ND96 without compound. Data were analyzed and plotted using Graphpad Prism Version 5 (GraphPad Software, San Diego California USA, www.graphpad.com). […] In the case of BL-1249-acid EC50 estimation, upper bound of I/I0 was set to 20 to account for the strong stimulation of BL-1249-acid."}, "K2P2.1(TREK-1)Δ322": {"target": "T2, K2P2.1(TREK-1)Δ322 (Mus musculus, UniProt P97438)", "T2 construct": "truncations at residue 322, K2P2.1(TREK-1)Δ322, equivalent to a previously described mutant called Δ89; expressed in transfected cells; host or cells: Xenopus laevis oocytes, mRNA injected", "T2 sequence (P97438 1-322 isoform P97438-2)": "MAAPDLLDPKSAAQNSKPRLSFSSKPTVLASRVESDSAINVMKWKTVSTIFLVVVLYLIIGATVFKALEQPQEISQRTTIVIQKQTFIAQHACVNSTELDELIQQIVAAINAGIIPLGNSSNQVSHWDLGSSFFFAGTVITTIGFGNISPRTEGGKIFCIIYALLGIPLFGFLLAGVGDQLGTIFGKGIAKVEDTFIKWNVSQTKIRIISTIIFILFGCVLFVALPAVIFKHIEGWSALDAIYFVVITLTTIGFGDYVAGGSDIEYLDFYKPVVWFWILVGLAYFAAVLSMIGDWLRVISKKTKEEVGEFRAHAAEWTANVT", "test": "TEVC of C-terminal truncation at residue 322", "type": "cell-based", "conditions": "Xenopus oocytes, saturation not reached, fit with upper boundary of 15 (I/I0)", "from_the_text": "Constructs for murine K2P channels, including K2P2.1(TREK-1) (Gene ID 16526), K2P10.1(TREK-2) (Gene ID 72258), K2P4.1(TRAAK) (Gene ID 16528), K2P5.1(TASK-2) (Gene ID 16529), K2P3.1(TASK-1) (Gene ID 16527), K2P9.1(TASK-3) (Gene ID 223604), and K2P18.1(TRESK) (Gene ID 332396) in pGEMHE/pMO, were used for Xenopus oocyte experiments as previously described.[10],[26] Murine K2P2.1(TREK-1) (Gene ID 16526) was expressed in HEK-293 cells using a pIRES-EGFP construct as previously described.[26] Murine K2P13.1(THIK-1) (Gene ID 217826) and K2P1.1(TWIK-1) (Gene ID 16525) were cloned into pGEMHE/pMO for use in Xenopus oocytes. […]\n(§1) Xenopus laevis oocytes were harvested in accordance with UCSF IACUC protocol AN129690 and digested in calcium-free ND-96 (96 mM NaCl, 2 mM KCl, 3.8 mM MgCl2) immediately following harvest, as previously described.[6],[10] […] Defolliculated stage V–VI oocytes were injected with 0.2–6.0 ng of mRNA in 50 nL, and currents were recorded 24–48 h after injection. mRNA was synthesized from plasmid DNA using mMessage mMachine Kit (T7 promoter, Ambion, Life Technologies) and purified using RNEasy Kit (Qiagen). […] Once stabilized basal currents were recorded, compounds were perfused at various concentrations in standard ND96 and currents were allowed to increase to stabilization before recording final current. […]"}, "K2P2.1(TREK-1) W275S": {"target": "T3, K2P2.1(TREK-1) W275S (Mus musculus, UniProt P97438, W290S)", "T3 construct": "expressed in transfected cells; host or cells: Xenopus laevis oocytes, mRNA injected", "T3 sequence (P97438 1-411 isoform P97438-2 W275S)": "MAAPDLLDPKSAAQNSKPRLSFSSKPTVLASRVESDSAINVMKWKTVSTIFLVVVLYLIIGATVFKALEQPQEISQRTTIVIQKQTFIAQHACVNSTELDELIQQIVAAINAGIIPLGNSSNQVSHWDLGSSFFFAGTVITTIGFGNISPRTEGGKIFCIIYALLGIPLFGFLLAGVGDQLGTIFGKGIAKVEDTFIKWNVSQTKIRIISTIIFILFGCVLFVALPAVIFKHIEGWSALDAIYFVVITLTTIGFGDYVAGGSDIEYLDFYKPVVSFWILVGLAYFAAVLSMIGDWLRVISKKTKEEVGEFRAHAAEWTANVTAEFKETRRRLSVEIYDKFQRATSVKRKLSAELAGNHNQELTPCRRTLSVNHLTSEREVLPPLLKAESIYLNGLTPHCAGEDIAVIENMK", "test": "TEVC of C-type gate activating mutant W275S", "type": "cell-based", "conditions": "Xenopus oocytes", "from_the_text": "Diverse types of physical and chemical stimuli activate K2P2.1(TREK-1) by stabilizing the C-type gate and switching the channel into a “leak” mode that is characterized by a loss of outward rectification of the potassium current.[6],[8] Accordingly, we used inside-out patch clamp experiments of K2P2.1(TREK-1) expressed in HEK293 cells to test whether BL-1249 acts on the C-type gate. […] Together with previous single point concentration studies showing the insensitivity of K2P2.1(TREK-1) W275S in mammalian cells,[40] our data provide definitive evidence that BL-1249 activates K2P2.1(TREK-1) by stimulating the C-type gate. […]\nas §1"}, "K2P1.1(TWIK-1)": {"target": "T4, K2P1.1(TWIK-1) (Mus musculus, UniProt O08581)", "T4 construct": "expressed in transfected cells; host or cells: Xenopus laevis oocytes injected with mRNA made from pGEMHE/pMO", "test": "TEVC of K2P1.1(TWIK-1) in Xenopus oocytes", "type": "cell-based", "conditions": "concentrations up to the solubility limit (∼80 μM)", "method": "(§2) BL-1249 activates K2P2.1(TREK-1)[18],[40] and K2P10.1(TREK-2),[7] but its effects on other K2P channels have not been characterized. […] In order to test if the original 10 μM assay had missed BL-1249 effects in other K2P channels, we tested concentrations of BL-1249 up to the solubility limit (∼80 μM) against the other K2P subfamily representatives. […]\nas §1, with “current. Fold activation upon compound application is expressed as I/I0 (0 mV), derived from the current at 0 mV in the presence of compound divided by the basal current at 0 mV in standard ND96 without compound. Data were analyzed and plotted using Graphpad Prism Version 5 (GraphPad Software, San Diego California USA, www.graphpad.com).” for “current.”"}, "K2P5.1(TASK-2)": {"target": "T5, K2P5.1(TASK-2) (Mus musculus, UniProt F6V9U5)", "T5 construct": "expressed in transfected cells; host or cells: Xenopus laevis oocytes (mRNA injection, pGEMHE/pMO)", "T5 sequence (F6V9U5 1-502)": "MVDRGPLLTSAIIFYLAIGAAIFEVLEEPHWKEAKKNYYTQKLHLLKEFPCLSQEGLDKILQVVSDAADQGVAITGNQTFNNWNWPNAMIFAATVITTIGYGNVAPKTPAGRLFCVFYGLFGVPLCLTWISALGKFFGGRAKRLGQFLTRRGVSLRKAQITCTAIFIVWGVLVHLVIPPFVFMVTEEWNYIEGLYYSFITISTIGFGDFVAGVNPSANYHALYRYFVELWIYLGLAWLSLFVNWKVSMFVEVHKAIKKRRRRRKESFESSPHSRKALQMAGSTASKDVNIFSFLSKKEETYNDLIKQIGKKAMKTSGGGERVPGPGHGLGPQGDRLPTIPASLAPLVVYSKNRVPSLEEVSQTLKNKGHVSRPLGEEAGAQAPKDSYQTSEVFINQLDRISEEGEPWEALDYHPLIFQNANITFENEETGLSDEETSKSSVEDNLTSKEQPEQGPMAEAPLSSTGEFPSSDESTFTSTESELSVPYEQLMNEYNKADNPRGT", "test": "TEVC of K2P5.1(TASK-2) in Xenopus oocytes", "type": "cell-based", "conditions": "concentrations up to the solubility limit (∼80 μM)", "method": "as §2\nas §1, with “current. Fold activation upon compound application is expressed as I/I0 (0 mV), derived from the current at 0 mV in the presence of compound divided by the basal current at 0 mV in standard ND96 without compound. Data were analyzed and plotted using Graphpad Prism Version 5 (GraphPad Software, San Diego California USA, www.graphpad.com).” for “current.”"}, "K2P18.1(TRESK)": {"test_system": "K2P18.1(TRESK)", "set-up": "method as in PMID 27641472", "conditions": "cited from earlier work"}}, "data": [{"smiles": "c1ccc(-c2nnn[nH]2)c(Nc2cccc3c2CCCC3)c1", "note": "[BL-1249, (5,6,7,8-tetrahydro-naphthalen-1-yl)-[2-(1H-tetrazol-5-yl)-phenyl]-amine]", "values": [{"measurement": "selectivity for K2P2.1(TREK-1) and K2P10.1(TREK-2) over K2P4.1(TRAAK) (EC50)", "setting": "K2P4.1(TRAAK)", "result": "~10", "unit": "fold"}, {"measurement": "K2P4.1(TRAAK) current response", "setting": "K2P4.1(TRAAK); 10 μM", "result": "weakly stimulated"}, {"measurement": "EC50", "setting": "K2P4.1(TRAAK); saturation not reached (solubility limit), fit with upper boundary of 15 (I/I0)", "result": "48 ± 10", "unit": "µM"}, {"measurement": "EC50", "setting": "K2P2.1(TREK-1)Δ322", "result": "26 ± 8", "unit": "µM"}, {"measurement": "EC50", "setting": "K2P2.1(TREK-1) W275S", "result": "> 60", "unit": "µM"}, {"measurement": "sensitivity of K2P2.1(TREK-1) W275S to compound", "setting": "K2P2.1(TREK-1) W275S", "result": "insensitive"}, {"measurement": "activation of K2P1.1(TWIK-1)", "setting": "K2P1.1(TWIK-1)", "result": "failed to find evidence for activation"}, {"measurement": "activation of K2P5.1(TASK-2)", "setting": "K2P5.1(TASK-2)", "result": "failed to find evidence for activation"}, {"measurement": "functional effect on K2P18.1(TRESK)", "setting": "K2P18.1(TRESK)", "result": "activator"}]}]}
